# Test results as given in patent publication US9637472B2, “Substituted 6,5-fused bicyclic heteroaryl compounds” (Epizyme, Inc., priority 2011, dated 2017).
# Biological target: EZH2 (Homo sapiens (Human), UniProt Q15910)
# Experiment: PRC2 enzyme assay on peptide substrates
# Format: biochemical
# Settings: PRC2 enzyme assays on peptide substrates; 4 nM enzyme, 30 min preincubation at 25° C.; read-out: EZH2 IC50
# EZH2, sequence (Q15910 other isoform, or with tags, fused parts or gaps): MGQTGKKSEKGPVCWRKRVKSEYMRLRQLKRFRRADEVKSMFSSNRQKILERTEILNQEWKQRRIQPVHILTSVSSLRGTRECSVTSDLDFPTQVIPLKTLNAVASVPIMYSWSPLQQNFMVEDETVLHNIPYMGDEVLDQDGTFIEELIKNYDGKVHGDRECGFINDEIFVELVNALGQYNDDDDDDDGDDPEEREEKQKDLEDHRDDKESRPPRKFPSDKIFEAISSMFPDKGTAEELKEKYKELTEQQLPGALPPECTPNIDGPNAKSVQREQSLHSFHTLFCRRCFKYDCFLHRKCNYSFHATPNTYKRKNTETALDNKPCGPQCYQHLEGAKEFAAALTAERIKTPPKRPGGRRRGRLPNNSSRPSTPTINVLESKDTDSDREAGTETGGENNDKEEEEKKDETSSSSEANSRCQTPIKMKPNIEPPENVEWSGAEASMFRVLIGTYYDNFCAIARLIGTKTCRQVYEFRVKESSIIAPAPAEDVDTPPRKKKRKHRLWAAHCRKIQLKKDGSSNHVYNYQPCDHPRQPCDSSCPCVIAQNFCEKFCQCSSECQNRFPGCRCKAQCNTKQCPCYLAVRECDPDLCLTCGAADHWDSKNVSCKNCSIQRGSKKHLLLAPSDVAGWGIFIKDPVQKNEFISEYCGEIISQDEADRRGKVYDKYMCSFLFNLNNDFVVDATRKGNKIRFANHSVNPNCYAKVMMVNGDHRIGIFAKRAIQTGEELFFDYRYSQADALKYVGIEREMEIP
# EZH2, sequence (O75530 whole entry partner): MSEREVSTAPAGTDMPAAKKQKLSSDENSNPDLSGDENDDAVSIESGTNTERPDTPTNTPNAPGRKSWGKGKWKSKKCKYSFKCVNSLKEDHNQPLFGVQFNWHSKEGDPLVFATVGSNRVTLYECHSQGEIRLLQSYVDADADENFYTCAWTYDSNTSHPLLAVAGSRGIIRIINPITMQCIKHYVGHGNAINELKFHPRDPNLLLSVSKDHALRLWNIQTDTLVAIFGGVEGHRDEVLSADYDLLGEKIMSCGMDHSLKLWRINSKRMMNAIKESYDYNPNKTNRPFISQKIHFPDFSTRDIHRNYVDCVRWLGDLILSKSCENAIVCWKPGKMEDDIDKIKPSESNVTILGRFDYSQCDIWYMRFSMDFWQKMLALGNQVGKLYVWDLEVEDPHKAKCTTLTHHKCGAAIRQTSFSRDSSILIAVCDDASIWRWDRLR
# EZH2, sequence (Q15022 whole entry partner): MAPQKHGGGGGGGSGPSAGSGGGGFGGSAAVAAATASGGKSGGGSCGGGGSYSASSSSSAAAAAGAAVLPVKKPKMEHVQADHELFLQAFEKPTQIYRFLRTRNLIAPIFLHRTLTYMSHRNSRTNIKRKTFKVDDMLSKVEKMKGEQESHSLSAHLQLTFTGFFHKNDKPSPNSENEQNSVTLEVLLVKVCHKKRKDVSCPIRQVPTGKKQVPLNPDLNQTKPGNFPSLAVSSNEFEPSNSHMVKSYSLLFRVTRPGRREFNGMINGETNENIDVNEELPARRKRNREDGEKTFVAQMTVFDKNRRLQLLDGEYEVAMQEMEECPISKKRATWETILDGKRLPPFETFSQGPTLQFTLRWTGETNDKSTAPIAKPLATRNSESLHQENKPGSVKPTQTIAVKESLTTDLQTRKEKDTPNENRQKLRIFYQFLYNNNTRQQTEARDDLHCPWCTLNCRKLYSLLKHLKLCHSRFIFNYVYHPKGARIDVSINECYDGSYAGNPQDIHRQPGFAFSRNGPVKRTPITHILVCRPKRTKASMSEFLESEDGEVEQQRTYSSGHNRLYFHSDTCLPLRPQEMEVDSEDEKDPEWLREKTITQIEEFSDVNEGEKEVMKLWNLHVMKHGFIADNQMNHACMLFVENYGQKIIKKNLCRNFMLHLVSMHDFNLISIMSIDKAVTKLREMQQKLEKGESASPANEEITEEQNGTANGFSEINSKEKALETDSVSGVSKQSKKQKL
# EZH2, sequence (Q09028 whole entry partner): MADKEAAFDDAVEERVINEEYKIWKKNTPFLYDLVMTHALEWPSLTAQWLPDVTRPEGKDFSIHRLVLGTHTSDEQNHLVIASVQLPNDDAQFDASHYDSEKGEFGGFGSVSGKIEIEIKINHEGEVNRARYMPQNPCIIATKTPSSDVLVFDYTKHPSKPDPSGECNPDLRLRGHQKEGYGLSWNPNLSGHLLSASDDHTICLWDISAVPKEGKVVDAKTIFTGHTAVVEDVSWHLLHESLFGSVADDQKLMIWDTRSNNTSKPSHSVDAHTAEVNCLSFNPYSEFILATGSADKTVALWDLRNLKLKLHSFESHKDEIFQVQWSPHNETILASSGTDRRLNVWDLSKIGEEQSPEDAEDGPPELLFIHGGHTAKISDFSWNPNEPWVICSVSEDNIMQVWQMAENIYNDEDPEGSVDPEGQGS
row,Structure (SMILES),IC50
1,Cc1cc(C)c(CNC(=O)c2cc(NCCS(C)(=O)=O)nc3c2cnn3C(C)C)c(=O)[nH]1 [Compound B-114],1000 to 3000 nM
2,C=C(C)c1cc(C(=O)NCc2c(C)cc(C)[nH]c2=O)c2cnn(C(C)C)c2n1 [Compound B-93],1000 to 3000 nM
3,Cc1cc(C)c(CNC(=O)c2cc(C3=CCN(C(=O)C4CNC4)CC3)cc3c2cnn3C2CCCC2)c(=O)[nH]1 [Compound D-37],< 300 nM
4,"Cc1cc(C)c(CNC(=O)c2cc(C3CCN(S(C)(=O)=O)CC3)nc3c2cnn3C(C)C)c(=O)[nH]1 [Compound B-27, N-((4,6-dimethyl-2-oxo-1,2-dihydropyridin-3-yl)methyl)-1-isopropyl-6-(1-(methylsulfonyl)piperidin-4-yl)-1H-pyrazolo[3,4-b]pyridine-4-carboxamide]",300 to 1000 nM
5,Cc1cc(C)c(CNC(=O)c2cc(-c3cccnc3N3CCN(C)CC3)nc3c2cnn3C(C)C)c(=O)[nH]1 [Compound A-63],1000 to 3000 nM
6,Cc1[nH]c(=O)c(CNC(=O)c2cc(C3=CC(C)(C)NC(C)(C)C3)nc3c2cnn3C(C)C)c(C)c1C [Compound B-139],3000 to 10000 nM
7,Cc1cc(C)c(CNC(=O)c2cc(-c3ccc(CN(C)C)cc3)cc3c2cnn3C2CCN(C(=O)C(C)(C)C)CC2)c(=O)[nH]1 [Compound C-31],< 300 nM
8,Cc1cc(C)c(CNC(=O)c2cc(C3=CC(C)(C)NC(C)(C)C3)nc3c2cnn3CC(F)(F)F)c(=O)[nH]1 [Compound B-164],3000 to 10000 nM
9,Cc1cc(C)c(CNC(=O)c2cc(Br)cc3c2cnn3C2CN(C(=O)OC(C)(C)C)C2)c(=O)[nH]1 [Compound D-34],1000 to 3000 nM
10,"Cc1cc(C)c(CNC(=O)c2cc(C(F)(F)F)cc3c2cnn3C2CCCC2)c(=O)[nH]1 [Compound D-11, 1-cyclopentyl-N-((4,6-dimethyl-2-oxo-1,2-dihydropyridin-3-yl)methyl)-6-(trifluoromethyl)-1H-indazole-4-carboxamide]",300 to 1000 nM
11,Cc1cc(C)c(CNC(=O)c2cc(C3CCN(C(=O)[C@@H](N)CO)CC3)nc3c2cnn3C(C)C)c(=O)[nH]1 [Compound B-100],1000 to 3000 nM
12,Cc1cc(C)c(CNC(=O)c2cc(-c3cccc(C(=O)O)c3)nc3c2cnn3C(C)C)c(=O)[nH]1 [Compound A-67],1000 to 3000 nM
13,"Cc1cc(C)c(CNC(=O)c2cc(N3CCN(C)CC3)nc3c2cnn3C(C)C)c(=O)[nH]1 [Compound B-9, N-((4,6-dimethyl-2-oxo-1,2-dihydropyridin-3-yl)methyl)-1-isopropyl-6-(4-methylpiperazin-1-yl)-1H-pyrazolo[3,4-b]pyridine-4-carboxamide]",1000 to 3000 nM
14,Cc1cc(C)c(CNC(=O)c2cc(C3CCN(CCC(F)(F)F)CC3)nc3c2cnn3C(C)C)c(=O)[nH]1 [Compound B-71],300 to 1000 nM
15,Cc1cc(CN2CCOCC2)c(CNC(=O)c2cccc3c2cnn3C2CCCC2)c(=O)[nH]1 [Compound D-84],3000 to 10000 nM
16,"Cc1cc(C)c(CNC(=O)c2cc(-c3cccc(CNCCO)c3)cc3c2cnn3C2CCCC2)c(=O)[nH]1 [Compound C-9, 1-cyclopentyl-N-((4,6-dimethyl-2-oxo-1,2-dihydropyridin-3-yl)methyl)-6-(3-(((2-hydroxyethyl)amino)methyl)phenyl)-1H-indazole-4-carboxamide]",< 300 nM
17,"Cc1cc(C)c(CNC(=O)c2cc(C3=CCN(C(=O)C4CNC4)CC3)nc3c2cnn3C(C)C)c(=O)[nH]1 [Compound B-30, 6-(1-(azetidine-3-carbonyl)-1,2,3,6-tetrahydropyridin-4-yl)-N-((4,6-dimethyl-2-oxo-1,2-dihydropyridin-3-yl)methyl)-1-isopropyl-1H-pyrazolo[3,4-b]pyridine-4-carboxamide]",< 300 nM
18,Cc1cc(C)c(CNC(=O)c2cc(C3=CCN(CCS(C)(=O)=O)CC3)nc3c2cnn3C(C)C)c(=O)[nH]1 [Compound B-89],1000 to 3000 nM
19,Cc1cc(C)c(CNC(=O)c2cc(C3=CCN(C(=O)C4CN(C)C4)CC3)cc3c2cnn3C2CCCC2)c(=O)[nH]1 [Compound D-50],< 300 nM
20,Cc1cc(C)c(CNC(=O)c2cc(C3=CCN(C(=O)CO)CC3)nc3c2cnn3C(C)C)c(=O)[nH]1 [Compound B-82],300 to 1000 nM
